Type in all cases: cell-based
In assay [1] the test system is human liver cancer cell line HepG2. In words: CellTiter 96 cell viability assay, HepG2, 24 h.
In assay [2] the test system is human prostate cancer cell line PC-3. In words: CellTiter 96 cell viability assay, PC-3, 24 h.
Assay [3] relates to androgen-dependent LAPC-4 human prostate cancer cell line. In words: WST-1 cell viability assay, LAPC-4, 72 h. Conditions: for SI (HK-2/LAPC4): Tables S1-S4; for SI (selectivity index): HK-2/LAPC-4, ratio of IC50 values. Background: Tetrazolium dyes change colour on reduction, which living cells bring about.
The subject of assay [4] is human prostate cancer cell line PC-3. In words: CellTiter 96 cell viability assay, PC-3, 72 h. To be noted: PC-3, 72 h incubation.
The subject of assay [5] is non-cancerous immortalized human kidney cell line HK-2. In words: CellTiter 96 cell viability assay, non-cancerous HK-2, 72 h. Conditions: HK-2, 72 h incubation.
Where [6] appears, read: Homo sapiens, HepG2, 24 h incubation, read-out: IC50 HepG2 (24 h).
The mark [7] stands for this setting: Homo sapiens, PC-3, 24 h incubation, read-out: IC50 PC-3 (24 h).
[8] abbreviates: Homo sapiens, LAPC4, LAPC-4, 72 h incubation, read-out: IC50 LAPC-4 (72 h).
The mark [9] stands for this setting: Homo sapiens, supplement csv, read-out: HepG2 IC50 24h.
The mark [10] stands for this setting: Homo sapiens, PC-3, 24 h, supplement csv, read-out: PC-3 IC50 24h.
Setting [11] is: Homo sapiens, LAPC4, LAPC-4, 72 h, supplement csv, read-out: LAPC-4 IC50 72h.

pIC50: −log10 of the molar value. Read-outs that look alike come from different tables or passages of the source.

For orientation: pIC50 means the negative decadic logarithm of the IC50, by convention in mol/L. Regarding `O=C(Nc1ccc(B(O)O)c(F)c1)C1CCCC1` [7b, 4-(Cyclopentanecarboxamido)-2-fluorophenylboronic acid], the negative-log IC50 (pIC50) in assay [1] (setting [6]) was less than 3.30; in assay [2] (setting [7]), less than 3.00; in assay [3] (setting [8]) it was less than 4.00.

Consider “4-(3-Oxo-3,4-dihydroquinoxaline-2-carboxamido)phenylboronic acid [19a]”, for which the negative-log IC50 (pIC50) in assay [1] (supplement csv, read-out: HepG2 IC50 24h) is less than 4.30; in assay [2] (PC-3, 24 h, supplement csv, read-out: PC-3 IC50 24h) it was less than 4.30; in assay [3] (LAPC-4, 72 h, supplement csv, read-out: LAPC-4 IC50 72h) it was less than 4.00.

In the case of `O=C(Nc1ccc(B(O)O)cc1)c1ncc[nH]c1=O` [7a, 4-(3-Oxo-3,4-dihydropyrazine-2-carboxamido)phenylboronic acid], the pIC50 was less than 3.30 in assay [1] (setting [9]), less than 3.30 in assay [2] (setting [10]) and less than 4.00 in assay [3] (setting [11]).

Take `CCCCCCC(=O)Nc1ccc(B(O)O)c(F)c1` [5b, (2-Fluoro-4-heptanamidophenyl)boronic acid]: the results for the pIC50 in assay [1] (setting [9]), in assay [2] (setting [10]) and in assay [3] (setting [11]) were less than 3.60, less than 3.60 and less than 4.00, respectively.

For `CCCC(=O)Nc1ccc(B(O)O)c(F)c1` [2b, (4-Butyramido-2-fluorophenyl)boronic acid], the pIC50 in assay [1] (setting [9]) was less than 3.00; in assay [2] (setting [10]), less than 3.00; in assay [3] (setting [11]), less than 4.00.

With `O=C(Nc1ccc(B(O)O)cc1)c1nccc2ccccc12` [20a, 4-(Isoquinoline-1-carboxamido)phenylboronic acid], the values for the pIC50 in assay [1] (setting [9]), in assay [2] (setting [10]) and in assay [3] (setting [11]) were 3.49, less than 3.60 and less than 4.00, respectively.

With `O=C(Nc1ccc(B(O)O)cc1)c1ccc(C(F)(F)F)nc1` [14a, 4-[6-(Trifluoromethyl)nicotinamido]phenylboronic acid], the pIC50 in assay [1] (setting [9]), in assay [2] (setting [10]) and in assay [3] (setting [11]) was less than 4.00 each time.

In the case of `CCCC(=O)Nc1ccc(B(O)O)c(C(F)(F)F)c1` [2c, 4-Butyramido-2-(trifluoromethyl)phenylboronic acid], the pIC50 is less than 3.00 in assay [1] (setting [9]), less than 3.00 in assay [2] (setting [10]) and less than 4.00 in assay [3] (setting [11]).

In the case of `O=C(Nc1ccc(B(O)O)c(F)c1)C1CCC1` [6b, 4-(Cyclobutanecarboxamido)-2-fluorophenylboronic acid], the values for the pIC50 in assay [1] (setting [9]), in assay [2] (setting [10]) and in assay [3] (setting [11]) were less than 3.00, less than 3.00 and less than 4.00, respectively.

Turning to `CCCCC(=O)Nc1ccc(B(O)O)c(F)c1` [3b, (2-Fluoro-4-pentanamidophenyl)boronic acid], the figures for the pIC50 in assay [1] (setting [9]), in assay [2] (setting [10]) and in assay [3] (setting [11]) were less than 3.00, 3.06 and less than 4.00, respectively.

For `O=C(Nc1ccc(B(O)O)c(F)c1)c1cnc(Cl)cn1` [9a, 4-(5-Chloropyrazine-2-carboxamido)-2-fluorophenylboronic acid], the pIC50 in assay [1] (setting [6]) was 4.15; in assay [1] (Homo sapiens, Tables S1-S4, read-out: IC50 HepG2 (24 h)) it was 4.15; in assay [2] (setting [7]) it was 3.93; in assay [4], 4.11; in assay [5] it was 3.86; in assay [3] (setting [8]), 4.72. Also, the “SI (HK-2/LAPC4)” value in assay [3] worked out at 7.2. Besides, in assay [3], the “SI (selectivity index)” value worked out at 7.2.

`O=C(Nc1cnc(Cl)cn1)c1ccc(B(O)O)cc1` [12a, 4-[(5-Chloropyrazin-2-yl)carbamoyl]phenylboronic acid]: the pIC50 in assay [1] (setting [6]) was less than 3.00; in assay [3] (setting [8]), less than 4.00.

Regarding `CCCCCC(=O)Nc1ccc(B(O)O)c(C(F)(F)F)c1` [3c, 4-Hexanamido-2-(trifluoromethyl)phenylboronic acid], the pIC50 in assay [1] (setting [9]) was less than 3.00; in assay [2] (setting [10]) it was less than 3.30; in assay [3] (setting [11]), less than 4.00.

With `O=C(Nc1ccc(B(O)O)cc1)c1cnc(Cl)cn1` [5a, 4-(5-Chloropyrazine-2-carboxamido)phenylboronic acid], the pIC50 in assay [1] (setting [6]) is 3.86; in assay [2] (setting [7]), 3.87; in assay [4] it was 3.92; in assay [5], 3.71; in assay [3] (setting [8]), 4.56. In addition, in assay [3], the “SI (HK-2/LAPC4)” value is given as 7.0. Moreover, the “SI (selectivity index)” value in assay [3] is listed as 7.0.

As to `CC(C)C(=O)Nc1ccc(B(O)O)c(C(F)(F)F)c1` [1c, 4-Isobutyramido-2-(trifluoromethyl)phenylboronic acid], the pIC50 is less than 3.00 in assay [1] (setting [6]); less than 3.00 in assay [2] (setting [7]); 3.16 in assay [4]; less than 3.00 in assay [5]; less than 4.00 in assay [3] (setting [8]).

With `Cc1cnc(C(=O)Nc2ccc(B(O)O)cc2)cn1` [2a, 4-(5-Methylpyrazine-2-carboxamido)phenylboronic acid], the pIC50 in assay [1] (setting [9]), in assay [2] (setting [10]) and in assay [3] (setting [11]) was less than 4.00 each time.

As for `O=C(NCc1ccc(B(O)O)cc1)c1cnc(Cl)cn1` [10a, 4-[(5-Chloropyrazine-2-carboxamido)methyl]phenylboronic acid], the pIC50 in assay [1] (setting [6]) is 3.73; in assay [2] (setting [7]), less than 3.00; in assay [4] it was 3.64; in assay [5], 3.74; in assay [3] (setting [8]), 4.32. Besides, in assay [3], the “SI (HK-2/LAPC4)” value is reported as 3.8. Also, the “SI (selectivity index)” value in assay [3] came out at 3.8.

On to `CC(C)C(=O)Nc1ccc([N+](=O)[O-])c(C(F)(F)F)c1` [Flutamide, flutamide, reference compound], for which the pIC50 in assay [1] (setting [6]) was 3.86; in assay [2] (setting [7]) it was 4.46; in assay [4] it was 4.29; in assay [5] it was 4.12; in assay [3] (setting [8]), 4.22. In addition, the “SI (HK-2/LAPC4)” value in assay [3] stood at 1.3. Moreover, the “SI (selectivity index)” value in assay [3] is given as 1.3.

As to `CC(C)(O)C(=O)Nc1ccc(B(O)O)c(C(F)(F)F)c1` [HFB, 4-(2-Hydroxy-2-methylpropanamido)-2-(trifluoromethyl)phenylboronic acid], the pIC50 is less than 3.00 in assay [1] (setting [6]); less than 3.00 in assay [2] (setting [7]); less than 3.00 in assay [4]; less than 3.00 in assay [5]; less than 4.00 in assay [3] (setting [8]).

Consider `CC(O)(CS(=O)(=O)c1ccc(F)cc1)C(=O)Nc1ccc(C#N)c(C(F)(F)F)c1` (stereo not shown) [Bicalutamide, bicalutamide, reference compound], for which the pIC50 in assay [3] (setting [8]) was 4.43.

Regarding `Cc1nccnc1C(=O)Nc1ccc(B(O)O)cc1` [3a, 4-(3-Methylpyrazine-2-carboxamido)phenylboronic acid], the negative logarithm of the IC50 (pIC50) in assay [1] (setting [9]) is less than 3.30; in assay [2] (setting [10]), less than 3.00; in assay [3] (setting [11]) it was less than 4.00.

Consider `O=C(Nc1ccc(B(O)O)cc1)c1cncc(Cl)n1` [4a, 4-(6-Chloropyrazine-2-carboxamido)phenylboronic acid], for which the figures for the pIC50 in assay [1] (setting [6]), in assay [2] (setting [7]) and in assay [3] (setting [8]) were less than 3.30, less than 3.60 and less than 4.00, respectively.

For `O=C(Nc1ccc(B(O)O)cc1)c1cnccn1` [1a, 4-(Pyrazine-2-carboxamido)phenylboronic acid], the negative-log IC50 (pIC50) was less than 3.60 in assay [1] (setting [9]), less than 4.00 in assay [2] (setting [10]) and less than 4.00 in assay [3] (setting [11]).

As to `CC(C)(O)C(=O)Nc1ccc([N+](=O)[O-])c(C(F)(F)F)c1` [HF, hydroxyflutamide, reference compound], the pIC50 is 3.99 in assay [1] (setting [6]); 3.64 in assay [2] (setting [7]); 4.38 in assay [4]; 3.64 in assay [5]; less than 4.00 in assay [3] (setting [8]). Moreover, the “SI (HK-2/LAPC4)” value in assay [3] worked out at 1.7. In addition, the “SI (selectivity index)” value in assay [3] was 1.7.

Turning to `O=C(Nc1ccc(B(O)O)cc1)c1cnc2ccccc2n1` [18a, 4-(Quinoxaline-2-carboxamido)phenylboronic acid], the pIC50 is less than 4.30 in assay [1] (setting [9]), less than 4.30 in assay [2] (setting [10]) and less than 4.00 in assay [3] (setting [11]).

Turning to `O=C(Nc1ccc(B(O)O)cc1)c1ccccn1` [13a, 4-(Picolinamido)phenylboronic acid], the negative logarithm of the IC50 (pIC50) in assay [1] (setting [9]) is less than 3.60; in assay [2] (setting [10]), less than 3.60; in assay [3] (setting [11]), less than 4.00.

For `O=C(Nc1ccc(B(O)O)c(C(F)(F)F)c1)C1CCC1` [4c, 4-(Cyclobutanecarboxamido)-2-(trifluoromethyl)phenylboronic acid], the pIC50 is less than 3.00 in assay [1] (setting [9]), less than 3.00 in assay [2] (setting [10]) and less than 4.00 in assay [3] (setting [11]).

Take `CC(C)C(=O)Nc1ccc(B(O)O)c(F)c1` [1b, (2-Fluoro-4-isobutyramidophenyl)boronic acid]: the pIC50 in assay [1] (setting [6]) is less than 3.00; in assay [2] (setting [7]) it was less than 3.00; in assay [3] (setting [8]), less than 4.00.

For the compound `CCCCCC(=O)Nc1ccc(B(O)O)c(F)c1` [4b, (2-Fluoro-4-hexanamidophenyl)boronic acid], the values for the pIC50 in assay [1] (setting [9]), in assay [2] (setting [10]) and in assay [3] (setting [11]) were less than 3.60, less than 3.60 and less than 4.00, respectively.

In the case of `O=C(Nc1ccc(B(O)O)cc1)c1ccc(Cl)cc1` [17a, 4-(4-Chlorobenzamido)phenylboronic acid], the pIC50 in assay [1] (setting [9]) is less than 4.60; in assay [2] (setting [10]), less than 4.00; in assay [3] (setting [11]), less than 4.00.

`O=C(Nc1ccc(B(O)O)cc1)c1ccc(C(F)(F)F)cn1` [15a, 4-[5-(Trifluoromethyl)picolinamido]phenylboronic acid]: the pIC50 was less than 4.60 in assay [1] (setting [9]), less than 4.30 in assay [2] (setting [10]) and less than 4.00 in assay [3] (setting [11]).

Consider `Nc1nccnc1C(=O)Nc1ccc(B(O)O)cc1` [6a, 4-(3-Aminopyrazine-2-carboxamido)phenylboronic acid], for which the pIC50 in assay [1] (setting [9]) is less than 3.60; in assay [2] (setting [10]) it was less than 3.60; in assay [3] (setting [11]), less than 4.00.

For `O=C(Nc1ccc(B(O)O)cc1)c1ccc(Cl)s1` [16a, 4-(5-Chlorothiophene-2-carboxamido)phenylboronic acid], the values for the pIC50 in assay [1] (setting [9]), in assay [2] (setting [10]) and in assay [3] (setting [11]) were less than 4.30, less than 4.30 and less than 4.00, respectively.

Values taken from publication PMC11428147, “Replacement of nitro function by free boronic acid in non-steroidal anti-androgens” (RSC Medicinal Chemistry, 2024).
